Columns and labels:
PD-1/PD-L1 PPI = PD-1/PD-L1 PPI (Homo sapiens, UniProt Q9NZQ7); assay: PDL1/PD1 Binding Assay; details: PDL1-6×His 0.3 nM, PD1-Fc-Avi-Biotin 2.5 nM, Acceptor/Donor beads, Envision reader
Protocol: Compounds to be tested were serially diluted in DMSO, and further diluted in assay buffer (25 mM Hepes pH 7.4, 150 mM NaCl, 0.005% Tween 20, BSA 0.01%). Diluted compounds were added to the wells with final concentration of DMSO at 1%. PDL1-6×His protein was added to the wells, mixed well with compound. The plates were incubated for 30 min at room temperature. PD1-Fc-Avi-Biotin protein was added to the wells. Final concentration of PDL1 and PD1 protein is 0.3 nM and 2.5 nM, respectively. After a binding time of 30 min at room temperature, Anti-6×His Acceptor beads (final concentration 20 ug/ml) were added to the wells, and the incubation continued for 1 h. Streptavidin Donor beads (final concentration 20 ug/mL) were added at reduced light. The plates were sealed with foil and incubated in the dark for additional 1 h or overnight before reading on an Envision reader. The IC50 values were determined by fitting the curves using a four-parameter equation in Graphpad Prism 8.

PD-1/PD-L1 interaction = assay: PD-1/PD-L1 NFAT Reporter Assay (co-culture of Jurkat T cells overexpressing PD-1 and PD-L1 expressing CHO cells); assay type: cell-based; details: co-culture 6 hrs at 37° C., NFAT-mediated luciferase activity
Protocol: Blocking the PD-1/PD-L1 interaction will release the inhibitory signal and results in TCR signaling and NFAT-mediated luciferase activity.
CHO cells expressing surface-bound anti-CD3 antibodies and PD-L1 were first seeded overnight and treated with the compounds. Jurkat cells overexpressing PD-1 and a luciferase construct under NFAT promoter were then immediately seeded on the monolayer of CHO cells. The co-culture was then incubated for 6 hrs at 37° C. Luciferase activity was assessed by adding the ONE-Glo reagent and measuring luminescence with a plate reader. EC50 values were determined from the fit of the dose-response curves.

Sequence of PD-1/PD-L1 PPI (Q9NZQ7 19-238 limits assumed): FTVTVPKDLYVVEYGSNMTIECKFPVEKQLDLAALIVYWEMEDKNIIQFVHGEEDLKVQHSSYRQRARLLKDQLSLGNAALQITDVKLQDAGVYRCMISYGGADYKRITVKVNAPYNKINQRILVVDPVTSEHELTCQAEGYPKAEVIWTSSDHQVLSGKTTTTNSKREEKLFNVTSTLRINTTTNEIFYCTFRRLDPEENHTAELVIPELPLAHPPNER

IC50 (PD-1/PD-L1 PPI) [µM]	EC50 (PD-1/PD-L1 interaction) [µM]	EC50 (PD-1/PD-L1 interaction; Homo sapiens, Jurkat, 6 h) [µM]	Structure (SMILES)
≤ 0.01	0.1 to 1	–	COc1nc(-c2cccc(-c3cccc(NC(=O)c4cn(C)c(=O)n(C)c4=O)c3C)c2Cl)cc2c1C(NC[C@@H]1CCC(=O)N1)C(O)C2 (single isomer, unassigned) [Compound A-127]
≤ 0.01	0.1 to 1	–	COc1nc(-c2cccc(-c3cccc(NC(=O)c4cn(C)c(=O)n(C)c4=O)c3C)c2Cl)cc2c1C(NC[C@@H]1CCC(=O)N1)C(O)C2 (single isomer, unassigned) [Compound A-128]
≤ 0.01	–	0.01 to 0.1	COc1nc(-c2cccc(-c3cccc(NC(=O)c4cn(C)c(=O)n(C)c4=O)c3Cl)c2Cl)cc2c1C(N1CC3(CNC(=O)C3)C1)CC2 (single isomer, unassigned) [Compound A-130]
0.01 to 0.1	–	0.1 to 1	COc1nc(-c2cccc(-c3cccc(NC(=O)c4cn(C)c(=O)n(C)c4=O)c3Cl)c2Cl)cc2c1[C@@H](N1CC3(COCC(=O)N3)C1)CC2 (single isomer, unassigned) [Compound A-133]
≤ 0.01	–	≤ 0.01	COc1nc(-c2cccc(-c3cccc(NC(=O)c4cn(C)c(=O)n(C)c4=O)c3Cl)c2Cl)cc2c1[C@H](N1CC3(COCC(=O)N3)C1)CC2 (single isomer, unassigned) [Compound A-134]
≤ 0.01	–	1 to 10	COc1nc(-c2cccc(-c3cccc(NC(=O)c4cn(C)c(=O)n(C)c4=O)c3C)c2Cl)cc2c1[C@@H](NC[C@@H]1CNC(=O)C1)CC2 (single isomer, unassigned) [Compound A-137]
≤ 0.01	–	≤ 0.01	COc1nc(-c2cccc(-c3cccc(NC(=O)c4ccnn(C)c4=O)c3C)c2Cl)cc2c1[C@@H](N1CC(C(=O)O)C1)CC2 (single isomer, unassigned) [Compound J-2]
≤ 0.01	–	≤ 0.01	COc1nc(-c2cccc(-c3cccc(NC(=O)c4cn(C)c(=O)n(C)c4=O)c3Cl)c2Cl)cc2c1[C@@H](N1CC(C(=O)O)C1)CC2 (single isomer, unassigned) [Compound J-3]
≤ 0.01	0.01 to 0.1	–	COc1nc(-c2cccc(-c3cccc(NC(=O)c4cn(C)c(=O)n(C)c4=O)c3C)c2Cl)cc2c1C(NC[C@@H]1CCC(=O)N1)C(F)C2 (single isomer, unassigned) [Compound K-1a]
≤ 0.01	–	≤ 0.01	COc1nc(-c2cccc(-c3cccc(NC(=O)c4cn(C)c(=O)n(C)c4=O)c3C)c2Cl)cc2c1[C@@H](NC[C@@H]1CCC(=O)N1)CC2 [Compound A-2]

Further lines, the compound ahead of its results:

Structure (SMILES)	IC50 (PD-1/PD-L1 PPI) [µM]	EC50 (PD-1/PD-L1 interaction) [µM]	EC50 (PD-1/PD-L1 interaction; Homo sapiens, Jurkat, 6 h) [µM]
COc1nc(-c2cccc(-c3cccc(NC(=O)c4cn(C)c(=O)n(C)c4=O)c3Cl)c2Cl)cc2c1[C@@H](N1CC3(CNC(=O)C3)C1)CC2 (single isomer, unassigned) [Compound A-129]	≤ 0.01	–	≤ 0.01
COc1nc(-c2cccc(-c3cccc(NC(=O)c4cn(C)c(=O)n(C)c4=O)c3C)c2Cl)cc2c1[C@@H](N1CC3(CNC(=O)C3)C1)CC2 (single isomer, unassigned) [Compound A-131]	≤ 0.01	≤ 0.01	–
COc1nc(-c2cccc(-c3cccc(NC(=O)c4cn(C)c(=O)n(C)c4=O)c3C)c2Cl)cc2c1[C@@H](N1CC3(CNC(=O)C3)C1)CC2 (single isomer, unassigned) [Compound A-132]	≤ 0.01	0.1 to 1	–
COc1nc(-c2cccc(-c3cccc(NC(=O)c4cn(C)c(=O)n(C)c4=O)c3Cl)c2Cl)cc2c1[C@@H](NC[C@@H]1CNC(=O)C1)CC2 (single isomer, unassigned) [Compound A-135]	≤ 0.01	–	0.1 to 1
COc1nc(-c2cccc(-c3cccc(NC(=O)c4cn(C)c(=O)n(C)c4=O)c3Cl)c2Cl)cc2c1[C@H](NC[C@@H]1CNC(=O)C1)CC2 (single isomer, unassigned) [Compound A-136]	≤ 0.01	–	≤ 0.01
COc1nc(-c2cccc(-c3cccc(NC(=O)c4ccnn(C)c4=O)c3Cl)c2Cl)cc2c1C(N1CC(C(=O)O)C1)CC2 (single isomer, unassigned) [Compound J-1]	≤ 0.01	–	≤ 0.01
COc1nc(-c2cccc(-c3cccc(NC(=O)c4cn(C)c(=O)n(C)c4=O)c3Cl)c2Cl)cc2c1[C@H](N1CC(C(=O)O)C1)CC2 (single isomer, unassigned) [Compound J-4]	≤ 0.01	–	0.1 to 1
COc1nc(-c2cccc(-c3cccc(NC(=O)c4cn(C)c(=O)n(C)c4=O)c3C)c2Cl)cc2c1C(NC[C@@H]1CCC(=O)N1)C(F)C2 (single isomer, unassigned) [Compound K-1b]	≤ 0.01	0.1 to 1	–

Source: patent US12534450B2, “Methods and compositions for targeting PD-L1” (Aligos Therapeutics, Inc., priority 2021, dated 2026)
